Laboratory results taken from PMC8158265, “Inhibition of catechol-O-methyltransferase by natural pentacyclic triterpenes: structure–activity relationships and kinetic mechanism” (Journal of Enzyme Inhibition and Medicinal Chemistry, 2021).
Where two headings read alike, the source gives them in different places. One block for each molecule: values may come before it.

Experiments:
recombinant human S-COMT [1] = target: T1, recombinant human S-COMT (Homo sapiens, UniProt P21964); assay: Inhibition kinetics of human S-COMT catalysed O-methylation of 3-BTD; assay type: biochemical; conditions: for Vmax: 200 μM SAM; for Inhibition type: with respect to 3-BTD (catechol site); for α: global fit of mixed inhibition model
T1 construct: made in house
T1 sequence (P21964 1-221 isoform P21964-2): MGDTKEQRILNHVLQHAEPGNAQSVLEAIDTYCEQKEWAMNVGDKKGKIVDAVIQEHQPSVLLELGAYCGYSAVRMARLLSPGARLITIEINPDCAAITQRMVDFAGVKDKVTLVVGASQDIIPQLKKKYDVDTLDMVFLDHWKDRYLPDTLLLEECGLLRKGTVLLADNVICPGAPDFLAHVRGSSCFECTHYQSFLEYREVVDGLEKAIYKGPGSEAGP

LO-2 cells = assay: Cytotoxicity assay (CCK8); assay type: cell-based, human; conditions: for IC50: Homo sapiens; for cell survival: up to 100 μM
Experimental: The normal human liver-derived cell line LO-2 were grown in DMEM culture medium supplemented with 10% FBS, penicillin (100 U/mL) and streptomycin ([…]). After culturing to 80% confluence, cells were digested and exactly 100 µL of cell suspension with a cell concentration of 10^4 cells/well was seeded in 96-well plates and incubated in a 5% CO2 humidified atmosphere at 37 °C for 12 h. Then the cells were incubated with 100 μL tested compounds of varying concentrations from 0.25 to 100 μM prepared in FBS-free culture medium for 24 h. Subsequently, CCK-8 was diluted 1:10 with DMEM culture and them was added into the adherent cells and incubated in 37 °C for 2 h. The absorbance at 450 nm was measured by using the multi-mode microplate reader. Cell viability can be calculated by A/A0 × 100% (A and A0 are the absorbance of experimental group and control group, respectively).

[2] = test system: mitochondrial membrane potential of LO-2 cells; assay: Mitochondrial membrane potential assay (JC-10, high-content imaging); assay type: cell-based, human; conditions: 24 h
Experimental: The cells were cultured as described in the Section 2.3. […] To assess the mitochondria membrane potential, JC-10 (5 μg/mL) was incubated with the cells for 30 min, and Hochest (10 μg/mL) was used to stain nuclei. After removal of culture medium and rinsing three times with PBS, cell imaging and quantitative analysis were performed by high-content imaging analysis (Molecular Devices® ImageXpress Micro 4, the USA).

recombinant human S-COMT [3] = target: T1, recombinant human S-COMT; assay: COMT activity inhibition assay (enzymatic activity based fluorescence assay, 3-BTD substrate); assay type: biochemical
[4] = apparent Vmax for 3-BTD with 2.5 μM inhibitor
[5] = apparent Vmax for 3-BTD with 5.0 μM inhibitor
[6] = apparent Vmax for 3-BTD with 7.5 μM inhibitor
[7] = L02, LO-2 cells, 24 h, CCK8, read-out: concentration that led to a 50% decrease of cell viability
[8] = 2.0 μg/mL human S-COMT, 2.0 μM 3-BTD as substrate, 200 μM SAM, mean ± SE, read-out: IC50
[9] = 2.0 μg/mL human S-COMT, 2.0 μM 3-BTD as substrate, 200 μM SAM, mean ± SE

SMILES: CC1(C)CC[C@]2(C(=O)O)CC[C@]3(C)C(=CC[C@@H]4[C@@]5(C)CC[C@H](O)C(C)(C)[C@@H]5CC[C@]43C)[C@@H]2C1 [Compound 1, Oleanic acid]
Vmax (recombinant human S-COMT [1]; [4]): 8.45 ± 0.29 nmol/min/mg | Vmax (recombinant human S-COMT [1]; [5]): 4.56 ± 0.084 nmol/min/mg | Vmax (recombinant human S-COMT [1]; [6]): 2.20 ± 0.030 nmol/min/mg | Inhibition type (recombinant human S-COMT [1]): Mixed | IC50 (LO-2 cells; [7]): > 100 µM | cell survival (LO-2 cells; LO-2 cells, CCK8): 95% | effect on MMP ([2]; at 50 μM): did not display a decrease of MMP

SMILES: CC1(C)CC[C@]2(C(=O)O)CC[C@]3(C)C(=CC[C@@H]4[C@@]5(C)C[C@@H](O)[C@H](O)C(C)(C)[C@@H]5CC[C@]43C)[C@@H]2C1 [Compound 3, Masline acid]
IC50 (recombinant human S-COMT [3]): 10.6 ± 0.96 µM

SMILES: C[C@H]1[C@H](C)CC[C@]2(C(=O)O)CC[C@]3(C)C(=CC[C@@H]4[C@@]5(C)C[C@@H](O)[C@H](O)[C@@](C)(CO)[C@@H]5CC[C@]43C)[C@H]12 [Compound 8, Asiatic acid]
IC50 (recombinant human S-COMT [3]): 43.1 ± 5.92 µM

SMILES: C=C(C)[C@@H]1CC[C@]2(C(=O)O)CC[C@]3(C)[C@H](CC[C@@H]4[C@@]5(C)CC[C@H](O)C(C)(C)[C@@H]5CC[C@]43C)[C@@H]12 [Compound 11, Betulinic acid]
IC50 (recombinant human S-COMT [3]; [8]): 5.07 ± 0.087 µM | Vmax (recombinant human S-COMT [1]; [4]): 9.97 ± 0.20 nmol/min/mg | Vmax (recombinant human S-COMT [1]; [5]): 8.95 ± 0.22 nmol/min/mg | Vmax (recombinant human S-COMT [1]; [6]): 6.06 ± 0.24 nmol/min/mg | α (recombinant human S-COMT [1]; with respect to 3-BTD): 0.39 | Ki (recombinant human S-COMT [1]; global fit, with respect to 3-BTD, saturated SAM, read-out: Ki): 5.6 ± 0.33 µM | Inhibition type (recombinant human S-COMT [1]): Mixed | IC50 (LO-2 cells; [7]): > 100 µM | cell survival (LO-2 cells; LO-2 cells, CCK8): 95%

SMILES: C=C(C)[C@@H]1CC[C@]2(C)CC[C@]3(C)[C@H](CC[C@@H]4[C@@]5(C)CC[C@H](O)C(C)(C)[C@@H]5CC[C@]43C)[C@@H]12 [Compound 12, Lupeol]
IC50 (recombinant human S-COMT [3]; [8]): 7.93 ± 0.47 µM

SMILES: C=C(C)[C@@H]1CC[C@]2(CO)CC[C@]3(C)[C@H](CC[C@@H]4[C@@]5(C)CC[C@H](O)C(C)(C)[C@@H]5CC[C@]43C)[C@@H]12 [Compound 13, Betulin]
IC50 (recombinant human S-COMT [3]): 8.86 ± 0.46 µM

SMILES: C=C(C)[C@@H]1CC[C@]2(C=O)CC[C@]3(C)[C@H](CC[C@@H]4[C@@]5(C)CC[C@H](O)C(C)(C)[C@@H]5CC[C@]43C)[C@@H]12 [Compound 14, Betulinic aldehyde]
IC50 (recombinant human S-COMT [3]; [8]): 10 ± 0.63 µM

SMILES: C=C(C)[C@@H]1CC[C@]2(C(=O)O)CC[C@]3(C)[C@H](CC[C@@H]4[C@@]5(C)CC[C@@H](O)C(C)(C)[C@@H]5CC[C@]43C)[C@@H]12 [Compound 15, Epibetulinic acid]
reduction in COMT-inhibitory potential compared to betulinic acid (11) (recombinant human S-COMT [3]): 50% | IC50 (recombinant human S-COMT [3]; [8]): 9.38 ± 0.37 µM

SMILES: C=C(C)[C@@H]1CC[C@]2(C(=O)O)CC[C@]3(C)[C@H](CC[C@@H]4[C@@]5(C)CC[C@H](O)[C@@](C)(CO)[C@@H]5CC[C@]43C)[C@@H]12 [Compound 16, 23-Hydroxybetulinic acid]
IC50 (recombinant human S-COMT [3]; [8]): 31.4 ± 2.42 µM

SMILES: C=C(C)[C@@H]1CC[C@]2(C(=O)O)CC[C@]3(C)[C@H](CC[C@@H]4[C@@]5(C)CCC(=O)C(C)(C)[C@@H]5CC[C@]43C)[C@@H]12 [Compound 17, Betulonic acid]
IC50 (recombinant human S-COMT [3]; [8]): 11.1 ± 0.51 µM

SMILES: CC1=C(O)C(=O)C=C2C1=CC=C1[C@@]2(C)CC[C@@]2(C)[C@@H]3C[C@](C)(C(=O)O)CC[C@]3(C)CC[C@]12C [Compound 18, Celastrol]
IC50 (recombinant human S-COMT [3]): 3.89 ± 0.15 µM | Ki (recombinant human S-COMT [1]): 3.5 ± 0.51 µM | Vmax (recombinant human S-COMT [1]; [4]): 7.91 ± 0.16 nmol/min/mg | Vmax (recombinant human S-COMT [1]; [5]): 4.39 ± 0.10 nmol/min/mg | Vmax (recombinant human S-COMT [1]; [6]): 2.54 ± 0.047 nmol/min/mg | α (recombinant human S-COMT [1]; with respect to 3-BTD): 0.20 | Inhibition type (recombinant human S-COMT [1]): Mixed | IC50 (LO-2 cells; L02, 24 h, read-out: concentration that led to a 50% decrease of cell viability, LO-2 cells, 24 h, CCK8): 2.4 µM | fold more potent cytotoxicity than tolcapone (LO-2 cells; LO-2 cells, CCK8): 12 fold

SMILES: Cc1c(O)c(O)cc2c1CC=C1C2(C)CCC2(C)C3CC(C)(C(=O)O)CCC3(C)CCC12C (stereo not shown) [Compound 19, Hydrocelastrol]
IC50 (recombinant human S-COMT [3]): 12.6 ± 0.73 µM

SMILES: C[C@H]1C(=O)CC[C@@H]2[C@]1(C)CC[C@H]1[C@@]2(C)CC[C@@]2(C)[C@@H]3CC(C)(C)CC[C@]3(C)CC[C@]12C [Compound 20, Friedelin]
IC50 (recombinant human S-COMT [3]; [9]): N.E.

SMILES: CCN(CC)C(=O)/C(C#N)=C/c1cc(O)c(O)c([N+](=O)[O-])c1 [Entacapone, entacapone, reference compound]
IC50 (LO-2 cells; [7]): > 100 µM

SMILES: Cc1ccc(C(=O)c2cc(O)c(O)c([N+](=O)[O-])c2)cc1 [Tolcapone, tolcapone, reference compound]
IC50 (LO-2 cells; [7]): 28 to 38 µM | reduction in membrane potential ([2]; 10 μM): 50%

Continued, values first:

IC50 (recombinant human S-COMT [3]; [8]): 8.37 ± 0.46 µM
SMILES: CC1(C)CC[C@]2(C(=O)O)CC[C@]3(C)C(=CC[C@@H]4[C@@]5(C)CC[C@H](O)[C@@](C)(CO)[C@@H]5CC[C@]43C)[C@@H]2C1 [Compound 2, Hederagenin]

IC50 (recombinant human S-COMT [3]; [9]): N.E.
SMILES: CC1(C)CCC2(C(=O)O)C(O)CC3(C)C(=CCC4C5(C)CC(O)C(O)C(C)(CO)C5CCC43C)C2C1 (stereo not shown) [Compound 4, Polygalacic acid]

IC50 (recombinant human S-COMT [3]; [8]): 29.2 ± 1.65 µM
SMILES: CC1(C)CC[C@]2(C)CC[C@]3(C)C(=CC[C@@H]4[C@@]5(C)CC[C@@H](O)[C@](C)(C(=O)O)[C@@H]5CC[C@]43C)[C@@H]2C1 [Compound 5, α-Boswellic acid]

IC50 (recombinant human S-COMT [3]; [8]): 115 ± 11.6 µM
SMILES: CC1(C)[C@@H](O)CC[C@]2(C)[C@H]3C(=O)C=C4[C@@H]5C[C@@](C)(C(=O)O)CC[C@]5(C)CC[C@@]4(C)[C@]3(C)CC[C@@H]12 [Compound 6, Glycyrrhetinic acid]

IC50 (recombinant human S-COMT [3]; [8]): 15.1 ± 1.35 µM | fold lower inhibitory potency than oleanolic acid (1) (recombinant human S-COMT [3]; ratio of IC50 values): ~3 fold
SMILES: C[C@H]1[C@H](C)CC[C@]2(C(=O)O)CC[C@]3(C)C(=CC[C@@H]4[C@@]5(C)CC[C@H](O)C(C)(C)[C@@H]5CC[C@]43C)[C@H]12 [Compound 7, Ursolic acid]

IC50 (recombinant human S-COMT [3]; [8]): 14.2 ± 0.87 µM
SMILES: C[C@H]1[C@H](C)CC[C@]2(C)CC[C@]3(C)C(=CC[C@@H]4[C@@]5(C)CC[C@@H](O)[C@](C)(C(=O)O)[C@@H]5CC[C@]43C)[C@H]12 [Compound 9, β-Boswellic acid]

IC50 (recombinant human S-COMT [3]; [9]): N.E.
SMILES: C[C@H]1[C@H](C)CC[C@]2(C)CC[C@]3(C)C(=CC(=O)[C@@H]4[C@@]5(C)CC[C@@H](O)[C@](C)(C(=O)O)[C@@H]5CC[C@]43C)[C@H]12 [Compound 10, 11-Keto-β-Boswellic acid]

IC50 (recombinant human S-COMT [3]; [8]): 9.57 ± 0.55 µM
SMILES: Oc1cc(O)c2c(c1)O[C@H](c1ccc(O)c(O)c1)[C@H](O)C2 [Epicatechin, reference compound]

IC50 (recombinant human S-COMT [3]): 3.23 ± 0.11 µM
SMILES: O=c1c(O)c(-c2ccc(O)c(O)c2)oc2cc(O)cc(O)c12 [Quercetin, reference compound]
